In general, IC50 refers to the point on the concentration scale where inhibition reaches its midpoint. The low end stands for inhibition by little substance, the high end for a need for much substance.

The experiment has as its target T1, Kinase A and SpoOF (Bacillus subtilis, UniProt P16497).
T1 construct: made in house; host or cells: recombinant E. coli
T1 sequence (P16497 1-606): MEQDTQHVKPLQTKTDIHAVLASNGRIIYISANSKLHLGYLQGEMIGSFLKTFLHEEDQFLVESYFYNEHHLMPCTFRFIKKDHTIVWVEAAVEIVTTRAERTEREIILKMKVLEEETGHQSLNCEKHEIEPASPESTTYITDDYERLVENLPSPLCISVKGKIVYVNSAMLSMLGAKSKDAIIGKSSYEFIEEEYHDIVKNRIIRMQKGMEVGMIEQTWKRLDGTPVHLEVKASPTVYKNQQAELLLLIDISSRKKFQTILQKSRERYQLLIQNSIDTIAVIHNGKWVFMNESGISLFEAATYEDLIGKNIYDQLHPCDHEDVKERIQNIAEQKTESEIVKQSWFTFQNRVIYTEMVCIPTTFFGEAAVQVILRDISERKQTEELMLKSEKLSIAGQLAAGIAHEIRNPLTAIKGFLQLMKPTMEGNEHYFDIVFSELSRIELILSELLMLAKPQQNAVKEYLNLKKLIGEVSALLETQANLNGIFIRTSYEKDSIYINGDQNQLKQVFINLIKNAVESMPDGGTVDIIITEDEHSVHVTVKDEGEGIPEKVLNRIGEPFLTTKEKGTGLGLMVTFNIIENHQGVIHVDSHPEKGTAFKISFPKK
Kind of experiment: Autophosphorylation of Kinase A and Transphosphorylation of SpoOF Assay (HPK in vitro assay). The experiment is classed as biochemical. As to conditions: [32P]ATP, gel/phosphoimager, inhibitor concentrations from 1 to 500 μM, IC50 of less than 1000 μM considered active. As for the experimental part: Autophosphorylation of Kinase A and Transphosphorylation of SpoOF Assay
To study the effect of the compounds of the present invention on the signal transduction process in bacteria, the inhibiting effect of the compounds on the sporulation operon proteins Kinase A and SpoOF was examined. Specifically, the inhibition of autophosphorylation of Kinase A and the transphosphorylation of SpoOF was determined in the following assays. The SpoOF response regulator is the primary substrate for phosphorylation by the protein kinase, Kin A, involved in the sporulation process in bacteria. See D. Burbulys, K. A. Trach, J. A. Hoch, Cell, 64, 545-552 (1991 ). SpoOF and KinA were prepared from recombinant E. coli overexpressing the proteins (J. Cavanagh et al, Amino Adds, 6, 131-140 (1994) and references therein).
The following stock reagents were either prepared and used promptly or stored at the indicated temperature:
8 X Salts: 2M KCl (5 mL), 1M MgCl2 ([…]), 1M CaCl2 ([…]), 10 mg/mL phenylmethylsulfonyl fluoride ([…]), 1M dithioreitol (50 mL), 0.25M Na2 EDTA (32 mL) and H2 O 3.82 mL (-20° C.)
5X Loading Dye: 0.5M TRIS-HCl-pH 6.8 (7.5 mL), 10% SDS (2 mL) 0.1% bromophenol blue (0.5 mL), 100% glycerol (3 mL) and 12.5M 2-mercaptoethanol (0.3 mL)
1-1.3 mg/mL KinA: 15 mM TRIS-HCl, pH 8.0, 6 mM KCl; 4 mM 2-mercaptoethanol;40% glycerol (-20° C.)
1 mg/mL SpoOF: 17.5 mM TRIS-HCl, pH 8.0; 0.7 mM KCl; 0.7 mM MgCl2; 0.7 mM CaCl2; 5 mM 2-mercaptoethanol; 30% Glycerol (-20° C.)
5% Stacking Gel: 40% 29:1 acrylamide:bis acrylamide (1.25 mL), 0.5M TRIS-HCl, pH 6.8 (2.5 mL), 10% SDS (0.1 mL), D-H2 O (6.15 mL) 10% ammonium persulfate (100 mL) and TEMED (25 mL)
SDS Running Buffer: TRIS-BASE (3.02 g), glycine (14.4 g) SDS (1 g), D-H2 O (to 1 L)
The reaction mixture was prepared from 8X Salts (87 μL), 1M TRIS, pH 8 (118 μL), 50% glycerol (63 μL), SpoOF (14.1 μL) and KinA (7.0 μL). Microcentrifuge tubes were charged with the reaction mixture (18.5 μL) and a 1.0 mM solution of the test compound in 5% DMSO (18.5 μL), and incubated for 15 min on ice. 100 mM ATP solution (3.0 μl, containing 625 μCi [^32 P]ATP) was added, and the mixture left for 10 minutes at room temperature. The reaction was quenched with 5X loading dye (10 μL per tube) and the samples were loaded on a prepared 5% Stacking Gel, or stored on dry ice until ready for use. The prepared wells were filled with SDS Running Buffer, samples were loaded into the wells, and 80 volts were applied to the gel until the dye front reached the bottom of the stacking gel. The voltage was then increased to 250 volts until electrophoresis was complete. Radioactive bands in the gel corresponding to phosphorylated KinA and SpoOF were imaged and quantitated with a phosphoimager.
If either enzyme was inhibited (as evidenced by the absence of labelled protein in the developed gel), an IC50 was calculated by running the assay with a range of inhibitor concentrations from 1 to 500 μM. After electrophoresis of the reaction mixtures, percent inhibition was determined by measuring the concentration of radioactive phosphorus with a phosphoimager and calculating the values using a software program (BioRad Molecular Analyst). IC50 values of less than 1000 μM are considered active.

For `N=C(N)NCCC1Oc2ccc(C(F)(F)F)cc2N(Cc2cccc(Cl)c2)C1=O` (stereo not drawn) [Example 18], the “IC50” value is 80 µM.

`Cc1ccc2c(c1)N(Cc1cccc(Cl)c1)C(=O)C(CCNC(=N)N)O2` (stereo not drawn) [Example 19]: the “IC50” value was found to be 52 µM.

In the case of `N=C(N)NCCC1Oc2cccnc2N(Cc2cccc(Cl)c2)C1=O` (stereo not drawn) [Example 20], the “IC50” value stood at 344 µM.

Consider `N=C(N)NCCC1Oc2ccccc2N(Cc2ccccc2Cl)C1=O` (stereo not drawn) [Example 22], for which the “IC50” value worked out at 325 µM.

For `N=C(N)NCCC1Oc2cc([N+](=O)[O-])ccc2N(Cc2cccc(Cl)c2)C1=O` (stereo not drawn) [Example 23], the “IC50” value stood at 182 µM.

In the case of `O=C1C(CCSC(=S)N2CCCC2)Oc2ccccc2N1Cc1ccccc1Cl` (stereo not drawn) [Example 25], the “IC50” value stood at 274 µM.

Source of the values: patent publication US5707990A, “2-substituted amino and thio alkyl benzoxazine antimicrobial agents” (Ortho Pharmaceutical Corporation, priority 1996, dated 1998).
